Legend:
[1] = molecular target: 5-hydroxytryptamine receptor 1B (Homo sapiens) (UniProt P28222); assay: 5-HT1B Eurofins-Cerep binding assay; set-up: ligand concentration 1 nM; settings: Compound concentration 10.0 uM
[2] = molecular target: Prostaglandin G/H synthase 1 (Homo sapiens) (UniProt P23219); assay: Inhibitor of COX-1 in the Eurofins Cerep SafetyScreen44 (BI) by Fluorimetry (Cerep_4173); settings: Compound concentration 10.0 uM
[3] = molecular target: Kappa-type opioid receptor (Homo sapiens) (UniProt P41145); assay: kappa (KOP) Eurofins-Cerep binding assay; settings: Compound concentration 10.0 uM
[4] = molecular target: 5-hydroxytryptamine receptor 1A (Homo sapiens) (UniProt P08908); assay: 5-HT1A Eurofins-Cerep binding assay; set-up: ligand concentration 0.5 nM; settings: Compound concentration 10.0 uM
[5] = molecular target: Alpha-2A adrenergic receptor (Homo sapiens) (UniProt P08913); assay: Inhibitor of ALPHA2A/HU in the Eurofins Cerep SafetyScreen44 (BI) by Radioactive Assay (Cerep_13); settings: Compound concentration 10.0 uM
[6] = molecular target: D(1A) dopamine receptor (Homo sapiens) (UniProt P21728); assay: D1 Eurofins-Cerep binding assay; set-up: ligand concentration 0.3 nM; settings: Compound concentration 10.0 uM
[7] = molecular target: D(2) dopamine receptor (Homo sapiens) (UniProt P14416); assay: Agonist activity in the Eurofins Cerep SafetyScreen44 (BI) against D2SH_AGON by Scintillation counting (Cerep_1322); settings: Compound concentration 10.0 uM
[8] = molecular target: Muscarinic acetylcholine receptor M2 (Homo sapiens) (UniProt P08172); assay: M2 Eurofins-Cerep binding assay; set-up: ligand concentration 2 nM; settings: Compound concentration 10.0 uM
[9] = molecular target: Mu-type opioid receptor (Homo sapiens) (UniProt P35372); assay: mu (MOP) Eurofins-Cerep binding assay; set-up: ligand concentration 0.5 nM; settings: Compound concentration 10.0 uM
[10] = molecular target: Sodium-dependent noradrenaline transporter (Homo sapiens) (UniProt P23975); assay: norepinephrine transporter Eurofins-Cerep binding assay; set-up: ligand concentration 1 nM; settings: Compound concentration 10.0 uM
[11] = molecular target: 3',5'-cyclic-AMP phosphodiesterase 4D (Homo sapiens) (UniProt Q08499); assay: Inhibitor of PDE4D2 in the Eurofins Cerep SafetyScreen44 (BI) by Scintillation counting (Cerep_4077); settings: Compound concentration 10.0 uM
[12] = molecular target: T1, Neuropeptide Y receptor type 2 (Homo sapiens, UniProt P49146); assay: Radioligand binding assay (NPY2R, BHK); assay type: cell-based, BHK-21
T1 sequence (P49146 whole entry): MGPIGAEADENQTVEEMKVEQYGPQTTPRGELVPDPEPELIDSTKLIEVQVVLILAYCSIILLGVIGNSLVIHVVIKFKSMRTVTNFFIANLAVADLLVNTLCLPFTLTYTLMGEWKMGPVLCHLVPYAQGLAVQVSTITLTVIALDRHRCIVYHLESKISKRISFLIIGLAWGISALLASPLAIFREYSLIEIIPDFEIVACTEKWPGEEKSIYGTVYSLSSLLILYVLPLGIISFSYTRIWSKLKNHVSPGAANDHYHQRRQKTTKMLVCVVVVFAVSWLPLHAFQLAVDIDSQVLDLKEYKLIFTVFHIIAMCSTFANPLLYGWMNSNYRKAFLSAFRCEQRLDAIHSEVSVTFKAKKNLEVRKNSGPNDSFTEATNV

[13] = molecular target: 5-hydroxytryptamine receptor 1A (Rattus norvegicus) (UniProt P19327); assay: Activity against 5HT1A/R in the Eurofins Panlabs screen (BI) by Radioactive Assay; settings: Compound concentration 10.0 uM
[14] = molecular target: Adenosine receptor A1 (Rattus norvegicus) (UniProt P25099); assay: Activity against A1/R in the Eurofins Panlabs screen (BI) by Radioactive Assay; settings: Compound concentration 10.0 uM
[15] = molecular target: Alpha-1A adrenergic receptor (Homo sapiens) (UniProt P35348); assay: Activity against ALPHA1A/R in the Eurofins Panlabs screen (BI) by Others; settings: Rattus norvegicus; Compound concentration 10.0 uM
Cavia porcellus = organism: Cavia porcellus; assay: Activity against ANF/GP in the Eurofins Panlabs screen (BI) by Radioactive Assay; settings: Compound concentration 10.0 uM
[16] = molecular target: Beta-1 adrenergic receptor (Oryctolagus cuniculus) (UniProt A0A4Y6F0G0); assay: Activity against BETA1/RB in the Eurofins Panlabs screen (BI) by Radioactive Assay; settings: Compound concentration 10.0 uM
[17] = molecular target: Bombesin receptor subtype-3 (Rattus norvegicus) (UniProt Q8K418); assay: Activity against BOMBESIN/R in the Eurofins Panlabs screen (BI) by Radioactive Assay; settings: Compound concentration 10.0 uM
[18] = molecular target: Nitric oxide synthase 3 (Rattus norvegicus) (UniProt Q62600); assay: Inhibitor of CNOS in the Eurofins Panlabs screen (BI) by Radioactive Assay; settings: Compound concentration 10.0 uM
[19] = molecular target: D(1A) dopamine receptor (Rattus norvegicus) (UniProt P18901); assay: Activity against D1/R in the Eurofins Panlabs screen (BI) by Radioactive Assay; settings: Compound concentration 10.0 uM
[20] = molecular target: Gamma-aminobutyric acid receptor subunit alpha-1 (Rattus norvegicus) (UniProt P62813); assay: Activity against GABAACENTR in the Eurofins Panlabs screen (BI) by Radioactive Assay; settings: Compound concentration 10.0 uM
[21] = molecular target: Histamine H1 receptor (Cavia porcellus) (UniProt P31389); assay: Activity against H1/CENT/GP in the Eurofins Panlabs screen (BI) by Radioactive Assay; settings: Compound concentration 10.0 uM
[22] = molecular target: ATP-sensitive inward rectifier potassium channel 1 isoform X1 (Mesocricetus auratus) (UniProt A0A1U8CU73); assay: Activity against K+/KATP/HA in the Eurofins Panlabs screen (BI) by Radioactive Assay; settings: Compound concentration 10.0 uM
[23] = molecular target: Potassium voltage-gated channel subfamily V member 1 (Rattus norvegicus) (UniProt P97557); assay: Activity against K+/KV/R in the Eurofins Panlabs screen (BI) by Radioactive Assay; settings: Compound concentration 10.0 uM
[24] = molecular target: Glutamate receptor ionotropic, kainate 1 (Rattus norvegicus) (UniProt P22756); assay: Activity against KAINATE/R in the Eurofins Panlabs screen (BI) by Radioactive Assay; settings: Compound concentration 10.0 uM
[25] = molecular target: Kappa-type opioid receptor (Cavia porcellus) (UniProt P41144); assay: Activity against KAPPA/GP in the Eurofins Panlabs screen (BI) by Radioactive Assay; settings: Compound concentration 10.0 uM
[26] = molecular target: Muscarinic acetylcholine receptor M2 (Rattus norvegicus) (UniProt P10980); assay: Activity against M2/R in the Eurofins Panlabs screen (BI) by Radioactive Assay; settings: Compound concentration 10.0 uM
[27] = molecular target: Muscarinic acetylcholine receptor M3 (Rattus norvegicus) (UniProt P08483); assay: Activity against M3/R in the Eurofins Panlabs screen (BI) by Radioactive Assay; settings: Compound concentration 10.0 uM
[28] = molecular target: Mu-type opioid receptor (Cavia porcellus) (UniProt P97266); assay: Activity against MU/GP in the Eurofins Panlabs screen (BI) by Radioactive Assay; settings: Compound concentration 10.0 uM
[29] = molecular target: Substance-P receptor (Cavia porcellus) (UniProt P30547); assay: Activity against NK1/GP in the Eurofins Panlabs screen (BI) by Radioactive Assay; settings: Compound concentration 10.0 uM
[30] = molecular target: Glutamate receptor ionotropic, NMDA 2A (Rattus norvegicus) (UniProt Q00959); assay: Activity against NMDAPHSI/R in the Eurofins Panlabs screen (BI) by Radioactive Assay; settings: Compound concentration 10.0 uM
[31] = molecular target: Tyrosine-protein kinase Lck (Homo sapiens) (UniProt P06239); assay: Inhibitor of P56TYRKINLCK in the Eurofins Panlabs screen (BI) by FI - fluorescence intensity; settings: Compound concentration 10.0 uM
[32] = molecular target: Platelet-activating factor receptor (Oryctolagus cuniculus) (UniProt G1TEI7); assay: Activity against PAF/RB in the Eurofins Panlabs screen (BI) by Radioactive Assay; settings: Compound concentration 10.0 uM
Mus musculus = organism: Mus musculus; assay: Inhibitor of PHORBOLE/M in the Eurofins Panlabs screen (BI) by Radioactive Assay; settings: Compound concentration 10.0 uM
[33] = molecular target: Protein kinase C gamma type (Homo sapiens) (UniProt P05129); assay: Inhibitor of PKCGAMMA in the Eurofins Panlabs screen (BI) by Radioactive Assay; settings: Compound concentration 10.0 uM
[34] = molecular target: Androgen receptor (Homo sapiens) (UniProt P10275); settings: Compound concentration 10.0 uM
Description: Activity against ANDROGEN/H in the Eurofins Cerep SafetyScreen44 (BI) by Radioactive Assay (Cerep_933)

3',5'-cyclic-AMP phosphodiesterase 4D (Homo sapiens), sequence (Q08499 whole entry): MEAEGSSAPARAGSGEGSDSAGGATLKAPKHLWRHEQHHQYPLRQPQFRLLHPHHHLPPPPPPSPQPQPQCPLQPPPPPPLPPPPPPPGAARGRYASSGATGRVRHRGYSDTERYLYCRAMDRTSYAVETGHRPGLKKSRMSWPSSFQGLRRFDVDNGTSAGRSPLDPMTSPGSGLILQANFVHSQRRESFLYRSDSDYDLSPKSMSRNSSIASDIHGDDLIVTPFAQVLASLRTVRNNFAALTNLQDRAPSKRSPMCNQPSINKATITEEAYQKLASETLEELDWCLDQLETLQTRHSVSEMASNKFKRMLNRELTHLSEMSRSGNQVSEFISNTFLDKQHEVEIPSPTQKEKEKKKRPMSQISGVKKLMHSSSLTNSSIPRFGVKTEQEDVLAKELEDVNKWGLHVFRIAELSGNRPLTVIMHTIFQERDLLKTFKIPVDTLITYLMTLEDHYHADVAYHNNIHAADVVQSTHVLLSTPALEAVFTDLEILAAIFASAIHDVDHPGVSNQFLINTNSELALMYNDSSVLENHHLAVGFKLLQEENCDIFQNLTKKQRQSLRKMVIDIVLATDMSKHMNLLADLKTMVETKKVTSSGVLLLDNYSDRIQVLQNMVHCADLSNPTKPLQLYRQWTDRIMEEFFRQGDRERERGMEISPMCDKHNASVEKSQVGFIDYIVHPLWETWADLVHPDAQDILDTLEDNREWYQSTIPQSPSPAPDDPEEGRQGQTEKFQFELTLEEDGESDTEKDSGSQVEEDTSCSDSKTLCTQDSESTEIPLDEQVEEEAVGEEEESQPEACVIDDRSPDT
Kappa-type opioid receptor (Cavia porcellus), sequence (P41144 whole entry): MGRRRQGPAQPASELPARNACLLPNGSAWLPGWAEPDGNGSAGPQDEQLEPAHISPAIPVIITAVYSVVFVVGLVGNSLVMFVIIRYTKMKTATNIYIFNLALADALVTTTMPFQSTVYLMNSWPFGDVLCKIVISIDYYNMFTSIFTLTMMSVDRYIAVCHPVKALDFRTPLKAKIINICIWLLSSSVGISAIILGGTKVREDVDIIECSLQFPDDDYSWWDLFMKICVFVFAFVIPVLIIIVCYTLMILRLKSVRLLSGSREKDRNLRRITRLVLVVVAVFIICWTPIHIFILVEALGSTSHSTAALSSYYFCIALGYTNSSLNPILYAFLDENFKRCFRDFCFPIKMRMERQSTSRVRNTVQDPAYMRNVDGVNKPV
Muscarinic acetylcholine receptor M3 (Rattus norvegicus), sequence (P08483 whole entry, looked up): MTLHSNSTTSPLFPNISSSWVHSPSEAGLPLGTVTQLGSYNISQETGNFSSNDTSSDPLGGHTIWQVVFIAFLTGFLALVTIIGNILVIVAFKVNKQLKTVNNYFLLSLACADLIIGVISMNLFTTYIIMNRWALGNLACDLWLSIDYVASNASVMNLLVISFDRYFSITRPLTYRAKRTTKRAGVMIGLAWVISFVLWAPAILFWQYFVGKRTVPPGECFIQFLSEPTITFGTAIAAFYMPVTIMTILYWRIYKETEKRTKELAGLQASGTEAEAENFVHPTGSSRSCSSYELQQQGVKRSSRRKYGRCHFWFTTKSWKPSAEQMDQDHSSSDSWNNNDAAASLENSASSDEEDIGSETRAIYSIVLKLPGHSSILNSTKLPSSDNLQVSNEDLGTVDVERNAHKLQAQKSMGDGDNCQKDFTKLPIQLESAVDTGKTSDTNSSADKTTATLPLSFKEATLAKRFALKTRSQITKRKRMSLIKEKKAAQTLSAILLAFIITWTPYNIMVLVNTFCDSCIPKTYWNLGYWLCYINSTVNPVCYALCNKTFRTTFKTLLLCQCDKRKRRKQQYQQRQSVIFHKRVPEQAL
Adenosine receptor A1 (Rattus norvegicus), sequence (P25099 whole entry): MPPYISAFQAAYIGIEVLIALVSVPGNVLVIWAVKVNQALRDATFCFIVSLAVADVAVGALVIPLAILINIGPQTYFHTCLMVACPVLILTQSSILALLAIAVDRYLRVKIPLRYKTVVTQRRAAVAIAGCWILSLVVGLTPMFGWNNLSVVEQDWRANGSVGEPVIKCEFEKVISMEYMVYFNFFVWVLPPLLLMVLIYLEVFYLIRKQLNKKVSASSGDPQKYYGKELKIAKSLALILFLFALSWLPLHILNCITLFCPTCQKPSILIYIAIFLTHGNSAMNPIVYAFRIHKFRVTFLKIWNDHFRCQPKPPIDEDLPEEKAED
5-hydroxytryptamine receptor 1A (Homo sapiens), sequence (P08908 whole entry): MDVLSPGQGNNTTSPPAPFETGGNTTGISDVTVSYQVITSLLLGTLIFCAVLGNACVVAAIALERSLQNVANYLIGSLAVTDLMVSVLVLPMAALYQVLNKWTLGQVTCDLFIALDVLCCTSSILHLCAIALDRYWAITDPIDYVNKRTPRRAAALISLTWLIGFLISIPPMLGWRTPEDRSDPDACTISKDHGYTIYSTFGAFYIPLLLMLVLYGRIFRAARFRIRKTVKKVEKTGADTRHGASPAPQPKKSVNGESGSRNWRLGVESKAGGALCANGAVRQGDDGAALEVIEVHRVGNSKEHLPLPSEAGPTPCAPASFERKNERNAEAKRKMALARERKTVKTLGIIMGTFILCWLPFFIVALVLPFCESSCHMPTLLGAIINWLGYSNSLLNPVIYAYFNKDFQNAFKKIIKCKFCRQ
Prostaglandin G/H synthase 1 (Homo sapiens), sequence (P23219 whole entry): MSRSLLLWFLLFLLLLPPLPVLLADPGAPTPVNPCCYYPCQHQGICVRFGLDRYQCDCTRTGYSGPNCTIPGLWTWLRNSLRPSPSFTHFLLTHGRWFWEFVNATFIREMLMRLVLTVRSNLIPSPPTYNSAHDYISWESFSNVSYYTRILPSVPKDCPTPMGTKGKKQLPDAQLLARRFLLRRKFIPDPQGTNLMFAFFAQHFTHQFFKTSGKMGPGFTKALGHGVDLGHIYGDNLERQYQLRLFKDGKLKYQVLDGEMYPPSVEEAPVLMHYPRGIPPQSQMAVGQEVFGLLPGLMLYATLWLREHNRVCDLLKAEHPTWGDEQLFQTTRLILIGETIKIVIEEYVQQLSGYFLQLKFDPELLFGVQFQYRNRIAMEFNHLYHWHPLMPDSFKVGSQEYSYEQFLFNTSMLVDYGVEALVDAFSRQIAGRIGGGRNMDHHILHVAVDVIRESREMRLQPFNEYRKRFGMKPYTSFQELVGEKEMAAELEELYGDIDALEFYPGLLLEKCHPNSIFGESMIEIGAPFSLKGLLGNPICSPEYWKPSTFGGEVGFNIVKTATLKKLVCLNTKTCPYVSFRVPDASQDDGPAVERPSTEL
5-hydroxytryptamine receptor 1A (Rattus norvegicus), sequence (P19327 whole entry): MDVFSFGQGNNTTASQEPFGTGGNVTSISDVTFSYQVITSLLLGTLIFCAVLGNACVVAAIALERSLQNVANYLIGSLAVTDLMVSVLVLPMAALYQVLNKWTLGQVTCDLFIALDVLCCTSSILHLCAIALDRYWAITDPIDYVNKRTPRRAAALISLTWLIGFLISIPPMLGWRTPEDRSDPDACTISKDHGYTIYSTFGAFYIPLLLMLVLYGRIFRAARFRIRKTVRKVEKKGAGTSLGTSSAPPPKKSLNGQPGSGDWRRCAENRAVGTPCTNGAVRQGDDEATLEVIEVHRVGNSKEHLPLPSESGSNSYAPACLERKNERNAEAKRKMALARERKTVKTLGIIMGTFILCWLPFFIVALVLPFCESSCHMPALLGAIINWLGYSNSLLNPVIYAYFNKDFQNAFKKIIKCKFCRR
Muscarinic acetylcholine receptor M2 (Homo sapiens), sequence (P08172 whole entry): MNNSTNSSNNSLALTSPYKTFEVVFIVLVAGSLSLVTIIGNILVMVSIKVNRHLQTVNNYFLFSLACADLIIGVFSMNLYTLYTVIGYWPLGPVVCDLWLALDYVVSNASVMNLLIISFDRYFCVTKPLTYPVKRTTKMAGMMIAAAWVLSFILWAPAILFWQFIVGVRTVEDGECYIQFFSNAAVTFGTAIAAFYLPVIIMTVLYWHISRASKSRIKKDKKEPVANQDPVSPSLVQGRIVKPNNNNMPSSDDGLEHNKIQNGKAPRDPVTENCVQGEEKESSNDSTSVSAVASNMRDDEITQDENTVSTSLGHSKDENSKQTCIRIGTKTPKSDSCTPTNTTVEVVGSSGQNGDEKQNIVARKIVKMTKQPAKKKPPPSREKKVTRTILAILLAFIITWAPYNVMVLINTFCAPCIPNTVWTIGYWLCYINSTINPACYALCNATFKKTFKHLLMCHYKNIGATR
Beta-1 adrenergic receptor (Oryctolagus cuniculus), sequence (A0A4Y6F0G0 as listed by the source): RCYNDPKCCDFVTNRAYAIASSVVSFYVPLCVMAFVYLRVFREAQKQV
Mu-type opioid receptor (Cavia porcellus), sequence (P97266 whole entry): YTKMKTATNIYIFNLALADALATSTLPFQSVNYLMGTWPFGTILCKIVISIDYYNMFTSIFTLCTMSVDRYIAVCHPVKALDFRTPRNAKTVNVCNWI

Molecule `N=C(N)NCCC[C@@H](NC(=O)C(c1ccccc1)c1ccccc1)C(=O)NCc1ccc(CNC(N)=O)cc1` has a residual activity [1] of 60%, a residual activity [2] of 81% and a residual activity [3] of 30%. For the same molecule, the residual activity [4] was 56%, the residual activity [5] was 93% and the residual activity [6] was 97%. For the same molecule, the residual activity [7] was 40%, the residual activity [8] was 90% and the residual activity [9] was 71%. The residual activity [10] was 91%, the residual activity [11] was 91% and the IC50 [12] was > 1 µM (not active). It also gave a residual activity [13] of 81%, a residual activity [14] of 99% and a residual activity [15] of 98%. It also gave a residual activity (Cavia porcellus) of 97%, a residual activity [16] of 82% and a residual activity [17] of 100%. The residual activity [18] was 104%, the residual activity [19] was 103% and the residual activity [20] was 89%. It also gave a residual activity [21] of 102%, a residual activity [22] of 76% and a residual activity [23] of 89%. For the same molecule, the residual activity [24] was 103%, the residual activity [25] was 105% and the residual activity [26] was 98%. It also gave a residual activity [27] of 85%, a residual activity [28] of 104% and a residual activity [29] of 106%. For the same molecule, the residual activity [30] was 77%, the residual activity [31] was 97% and the residual activity [32] was 91%. For the same molecule, the residual activity (Mus musculus) was 95%, the residual activity [33] was 92% and the residual activity [34] was 91%.
